PubChem BioAssay AID1963828 (Molecular Pharmacology Branch, DTP, NCI, 2024)
pIC50: −log10 of the molar value.

Tested on: 991263-137-R1-J2-PDC complex spheroid viability
Assay: Anticancer human tumor 991263-137-R1-J2-PDC patient-derived colon adenocarcinoma cell line growth inhibition [POLQ]
Conditions: for pIC50: curve of first compound; for viability, T/C: stronger effect = lower value
Experimental: Multicellular complex tumor spheroid response to Polymerase (POL) inhibitors (novobiocin, ART-558, RP6685) in combination with a variety of drugs and investigational agents in selected tumor cell lines
The POL inhibitors (novobiocin, ART-558, and RP6685) were evaluated both individually and in combination with standard of care and investigational anticancer small molecules within a complex spheroid model of solid tumors. . Complex spheroids include a stromal component modeled by human endothelial cells (HUVEC) and fibroblasts modeled by human mesenchymal stem cells (MSCs). The concentration ranges selected for each drug and investigational agent were based upon clinically achievable concentrations if the clinical Cmax of the agent was known.
Compounds. The drugs and investigational agents: novobiocin (NSC847541), ART-558 (NSC835418), RP-6685 (NSC848927), peposertib (NSC802822), ceralasertib (NSC780249), elimusertib (NSC800525), camonsertib (NSC841442), AZD-1390 (NSC803789), olaparib (NSC753686), talazoparib (NSC767125), rucaparib (NSC756644), sotorasib (NSC818433), MRTX-1133 (NSC836407), SN-38 (NSC673596), topotecan (NSC609699), epotoside (NSC141540), doxorubicin (NSC123127), gemcitabine (NSC613327), 5-fluorouracil (NSC19893), paclitaxel (NSC125973), vemurafenib (NSC761431), MSA-2 (NSC828583), SN-011 (NSC837082), adavosertib (NSC754352), prexasertib (NSC758257), carboplatin (NSC241240) and oxaliplatin (NSC266046), were obtained from the National Cancer Institute (NCI) Developmental Therapeutics Program Chemical Repository (21). The FDA-approved anticancer drug set is available from the Developmental Therapeutics Program at https://dtp.cancer.gov/organization/dscb/obtaining/. […] The stock solutions were prepared in dimethyl sulfoxide (DMSO, Sigma-Aldrich, St. Louis, MO, cat. D2650), except for the platinum compounds which were prepared in saline (Quality Biological, Gaithersburg, MD, cat. 114-055-101), at 800-fold the tested concentration and stored at -70 degrees C prior to their use. All drugs and investigational agents were tested over a range starting from a high concentration at or near the clinical Cmax and decreasing in half-log increments. If the clinical Cmax for an agent had not been determined, the highest concentration tested was 10 microM, except for SN-38, which was tested at a high concentration of 1 microM.
Cell Culture. All cells were maintained in an incubator at 37 degrees C and 5% CO2 with 95% humidity. The PDC lines were cultured according to standard operating procedures established by the NCI PDMR (https://pdmr.cancer.gov). Table 3 of the manuscript, lists the cell lines along with the number of the three cell types plated to form the mct-spheroids and media for tumor cell growth. After thawing, all PDC lines, except 997537-175-T-J1-PDC and 415267-285-R-J2-PDC, were cultured in Matrigel-coated flasks prepared with a working solution of 1X Ham's F-12 nutrient mix, without supplementation (Thermo Fisher Scientific, cat. 11765054), 100 U/mL penicillin-streptomycin (Thermo Fisher Scientific, cat. 15140122), and 2.5% Matrigel (Corning Inc., Corning, NY, cat. 354248) for the first three passages. The two PDC lines 997537-175-T-J1-PDC and 415267-285-R-J2-PDC were cultured on uncoated flasks. The 857933-349-R-J2-PDC line was cultured in 6C/Colon 1B media containing advanced DMEM/F-12 (Thermo Fisher Scientific, cat. 12634028), 10 mM HEPES (Thermo Fisher Scientific, cat. 15630080), 1X GlutaMAX supplement (Thermo Fisher Scientific, cat. 35050061), 0.1 mg/mL primocin (InvivoGen, San Diego, CA, cat. ant-pm-2), 10% defined fetal bovine serum, heat inactivated (HyClone Laboratories Inc., Logan, UT, cat. SH30070.03HI), 50% L-WRN conditioned media (ATCC, cat. CRL-3276), 1.25 mM N-Acetyl-L-cysteine (Sigma-Aldrich, cat. A9165), 10 mM nicotinamide (Sigma-Aldrich, cat. N0636), 1X B-27 supplement (Thermo Fisher Scientific, cat. 17504044), 1X N-2 supplement (Thermo Fisher Scientific, cat. […]

[1] = second compound 0.0316 µM, first compound 0.0316 µM
[2] = second compound 0.0316 µM, first compound 0.1 µM
[3] = second compound 0.0316 µM, first compound 0.316 µM
[4] = second compound 0.0316 µM, first compound 1 µM
[5] = second compound 0.0316 µM, first compound 3.16 µM
[6] = second compound 0.0316 µM, first compound 10 µM
[7] = second compound 0.1 µM, first compound 0.0316 µM
[8] = second compound 0.1 µM, first compound 0.1 µM
[9] = second compound 0.1 µM, first compound 0.316 µM
[10] = second compound 0.1 µM, first compound 1 µM
[11] = second compound 0.1 µM, first compound 3.16 µM
[12] = second compound 0.1 µM, first compound 10 µM
[13] = second compound 0.316 µM, first compound 0.0316 µM
[14] = second compound 0.316 µM, first compound 0.1 µM
[15] = second compound 0.316 µM, first compound 0.316 µM
[16] = second compound 0.316 µM, first compound 1 µM
[17] = second compound 0.316 µM, first compound 3.16 µM
[18] = second compound 0.316 µM, first compound 10 µM
[19] = second compound 1 µM, first compound 0.0316 µM
[20] = second compound 1 µM, first compound 0.1 µM
[21] = second compound 1 µM, first compound 0.316 µM
[22] = second compound 1 µM, first compound 1 µM
[23] = second compound 1 µM, first compound 3.16 µM
[24] = second compound 1 µM, first compound 10 µM
[25] = second compound 3.16 µM, first compound 0.0316 µM
[26] = second compound 3.16 µM, first compound 0.1 µM
[27] = second compound 3.16 µM, first compound 0.316 µM
[28] = second compound 3.16 µM, first compound 1 µM
[29] = second compound 3.16 µM, first compound 3.16 µM
[30] = second compound 3.16 µM, first compound 10 µM
[31] = second compound 10 µM, first compound 0.0316 µM
[32] = second compound 10 µM, first compound 0.1 µM
[33] = second compound 10 µM, first compound 0.316 µM
[34] = second compound 10 µM, first compound 1 µM
[35] = second compound 10 µM, first compound 3.16 µM
[36] = second compound 10 µM, first compound 10 µM
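Also: spheroids exposed to compounds for 7 days before readout.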
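For viability, T/C in this document: 100% = DMSO vehicle control viability.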

O=c1[nH]cc(F)c(=O)[nH]1 + Cc1cccc(N(C)C(=O)C2C(O)CCN2c2nc(C)cc(C(F)(F)F)c2C#N)c1
pIC50 (second compound 0.0316 µM): < 5.00 | pIC50 (second compound 0.1 µM): < 5.00 | pIC50 (second compound 0.316 µM): < 5.00 | pIC50 (second compound 1 µM): < 5.00 | pIC50 (second compound 3.16 µM): < 5.00 | pIC50 (second compound 10 µM): < 5.00 | viability, T/C [1]: 102% | viability, T/C [2]: 116% | viability, T/C [3]: 94% | viability, T/C [4]: 75.6% | viability, T/C [5]: 74.8% | viability, T/C [6]: 84.3% | viability, T/C [7]: 107% | viability, T/C [8]: 90.7% | viability, T/C [9]: 79.6% | viability, T/C [10]: 93.4% | viability, T/C [11]: 85.8% | viability, T/C [12]: 82.3% | viability, T/C [13]: 124% | viability, T/C [14]: 101% | viability, T/C [15]: 93% | viability, T/C [16]: 83.3% | viability, T/C [17]: 77.2% | viability, T/C [18]: 80.9% | viability, T/C [19]: 110% | viability, T/C [20]: 108% | viability, T/C [21]: 97.3% | viability, T/C [22]: 90.8% | viability, T/C [23]: 85.4% | viability, T/C [24]: 76% | viability, T/C [25]: 108% | viability, T/C [26]: 94.8% | viability, T/C [27]: 102% | viability, T/C [28]: 90.2% | viability, T/C [29]: 82.5% | viability, T/C [30]: 62.2% | viability, T/C [31]: 115% | viability, T/C [32]: 95.4% | viability, T/C [33]: 94.1% | viability, T/C [34]: 70% | viability, T/C [35]: 85% | viability, T/C [36]: 69.6%

O=C(c1cc(Cc2n[nH]c(=O)c3ccccc23)ccc1F)N1CCN(C(=O)C2CC2)CC1 + COC1C(OC(N)=O)C(O)C(Oc2ccc3c(O)c(NC(=O)c4ccc(O)c(CC=C(C)C)c4)c(=O)oc3c2C)OC1(C)C
pIC50 (second compound 0.0316 µM): < 5.00 | pIC50 (second compound 0.1 µM): < 5.00 | pIC50 (second compound 0.316 µM): < 5.00 | pIC50 (second compound 1 µM): < 5.00 | pIC50 (second compound 3.16 µM): < 5.00 | pIC50 (second compound 10 µM): < 5.00 | viability, T/C [1]: 99.2% | viability, T/C [2]: 96.8% | viability, T/C [3]: 90.2% | viability, T/C [4]: 92.7% | viability, T/C [5]: 96.9% | viability, T/C [6]: 95.5% | viability, T/C [7]: 99.2% | viability, T/C [8]: 101% | viability, T/C [9]: 100% | viability, T/C [10]: 82.1% | viability, T/C [11]: 85.5% | viability, T/C [12]: 85.6% | viability, T/C [13]: 113% | viability, T/C [14]: 109% | viability, T/C [15]: 81.6% | viability, T/C [16]: 92.5% | viability, T/C [17]: 113% | viability, T/C [18]: 108% | viability, T/C [19]: 93.9% | viability, T/C [20]: 98.1% | viability, T/C [21]: 78.2% | viability, T/C [22]: 93.7% | viability, T/C [23]: 73.5% | viability, T/C [24]: 101% | viability, T/C [25]: 94.5% | viability, T/C [26]: 103% | viability, T/C [27]: 104% | viability, T/C [28]: 85% | viability, T/C [29]: 109% | viability, T/C [30]: 113% | viability, T/C [31]: 82.4% | viability, T/C [32]: 94.7% | viability, T/C [33]: 106% | viability, T/C [34]: 78.4% | viability, T/C [35]: 112% | viability, T/C [36]: 103%
